Results from US20230338362A1 (priority 2020, published 2023).
Peptide text beside a SMILES is read from it. * marks the point of attachment. Cbz = O=C(OCc1ccccc1)*; CH2F = FC*

Columns and labels:
[1] = system: VERO-E6 cells enriched for angiotensin converting enzyme 2 receptor (ACE-2); assay: In vitro toxicity, cell viability assay in VERO-E6 cells in the absence of virus; conditions: Table I, positive controls; absence of SARS-CoV-2 virus
[2] = system: SARS-CoV-2; assay: SARS-CoV-2 inhibition, cell viability assay (CellTiter-Glo) in VERO-E6 cells enriched for ACE-2; format: cell-based; conditions: Table I, positive controls; VERO-E6 cells enriched for ACE-2 plus SARS-CoV-2; read-out: IC50
[3] = system: macrophages treated with SARS-CoV-2 Spike protein; format: cell-based, human; further: test concentration or dose not given here
[4] = system: IRAK1, NF-κB, MAPKs, IRAK4 (MyD88 signaling); assay: MyD88 signaling in human macrophages; format: cell-based
[5] = system: macrophages treated with SARS-CoV-2 Spike protein; format: cell-based, human; remark: listed apart in the source; further: test concentration or dose not given here
[6] = human macrophages, through interaction with MyD88

Structure (SMILES) | CC50 [1] | IC50 [2] | apoptosis by activation of caspase 3 [3] | apoptosis by caspase 3 activation [3] | NF-κB translocation into the nucleus [4] | activation of IRAK1, NF-κB, and MAPKs [4, 6] | expression of IRAK4 [4, 6] | anti-inflammatory cytokines [5] | expression of cytokine modulators / anti-inflammatory cytokines [5] | expression of pro-inflammatory cytokines [5] | expression of the anti-inflammatory cytokine IL-10 [5] | multiple pro-inflammatory cytokines [5] | pro-inflammatory cytokines [5]
CC(C)C[C@H](NC(=O)OCc1ccccc1)C(=O)N[C@@H](CC(C)C)C(=O)N[C@@H](Cc1ccc(O)cc1)C(=O)CF [Calpain Inhibitor IV, reference compound] (Cbz-Leu-Leu-Tyr-CH2F) | > 7.17 µM | 0.12 µM | – | – | – | – | – | – | – | – | – | – | –
O=C(OC[C@H]1O[C@@H](OC(=O)c2cc(O)c(O)c(O)c2)[C@H](OC(=O)c2cc(O)c(O)c(O)c2)[C@@H](OC(=O)c2cc(O)c(O)c(O)c2)[C@@H]1OC(=O)c1cc(O)c(O)c(O)c1)c1cc(O)c(O)c(O)c1 | – | – | selectively induces apoptosis | not observed to induce apoptosis | inhibited NF-κB translocation into the nucleus | potently reduced the activation of IRAK1, NF-κB, and MAPKs | increasing expression of IRAK4 | inducing anti-inflammatory cytokines such as IL-10 | activated expression of cytokine modulators IL-10 and IFN-γ | inhibited expression of pro-inflammatory cytokines IL-1α, VEGF, IL-1β, IL-2, IL-4, IL-5, IL-6, IL-8, IL-12p70, IL-13, GM-CSF, GRO, MCP-1, MIP-1α, MIP-1β, MMP-9, RANTES, and TNF-α | increasing expression of the anti-inflammatory cytokine IL-10 | suppressed multiple pro-inflammatory cytokines such as IL-1β, TNF-α, IL-6 IL-8, IL-12, MCP-1 and MIP-1α | selectively inhibited pro-inflammatory cytokine, such as IL-1α, VEGF, IL-1β, IL-2, IL-4, IL-5, IL-6, IL-8, IL-12p70, IL-13, GM-CSF, GRO, MCP-1, MIP-1α, MIP-1β, MMP-9, RANTES, and TNF-α
CCC(CC)COC(=O)[C@H](C)N[P@](=O)(OC[C@H]1O[C@@](C#N)(c2ccc3c(N)ncnn23)[C@H](O)[C@@H]1O)Oc1ccccc1 [Remdesivir, remdesivir, reference compound] | > 30 µM | – | – | – | – | – | – | – | – | – | – | – | –
